Test results as given in PubChem BioAssay (NCI).
Values joined by “and” are separate entries in the source; they are usually repeats but may differ in a detail not shown here. Identical values can stand only once.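 Following 48 hours of exposure in 96-well plates, responses at five concentrations were used to interpolate endpoints linearly. GI50 = concentration required for 50% inhibition of growth. TGI: total growth inhibition.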

Key:
Assay in all cases: NCI tumour cell line growth inhibition, 48 h
RXF-631 renal = tested on: RXF-631 renal
DMS 273 small cell lung = tested on: DMS 273 small cell lung
LXFL 529 NSCLC = tested on: LXFL 529 NSCLC
MDA-MB-435 = tested on: MDA-MB-435
HS 578T breast = tested on: HS 578T breast
T-47D breast = tested on: T-47D breast
MCF7 breast = tested on: MCF7 breast
XF 498 CNS = tested on: XF 498 CNS
MDA-N = tested on: MDA-N

COc1cccc2c1C1=CC(=O)CCC1C(C)(C)O2 (centres undefined)
TGI (RXF-631 renal): > 100 µM | TGI (DMS 273 small cell lung): > 100 µM | TGI (LXFL 529 NSCLC): > 100 µM

O=[N+]([O-])/C=C\c1ccc2c(c1)OCO2
GI50 (MDA-MB-435): 2.16 µM | GI50 (HS 578T breast): 3.47 µM | TGI (HS 578T breast): 19.9 µM | GI50 (T-47D breast): 5.27 µM | TGI (T-47D breast): 26.2 µM | GI50 (MCF7 breast): 1.99 µM | TGI (MCF7 breast): 10.4 µM

CCc1ccc(C2=C(O)C(=O)C(c3ccc(CC)cc3)=C(O)C2=O)cc1
GI50 (MDA-MB-435): 1.89 µM | TGI (MDA-MB-435): 6.72 µM | GI50 (HS 578T breast): 1.72 µM | TGI (HS 578T breast): 6.58 µM | GI50 (T-47D breast): 1.9 µM | TGI (T-47D breast): 6.65 µM | GI50 (MCF7 breast): 1.83 µM | TGI (MCF7 breast): 5.05 µM

CN(C)CCNc1cccc2sc3ccc(O)cc3c(=O)c12
GI50 (MDA-MB-435): 1.49 µM | TGI (MDA-MB-435): 3.16 µM | GI50 (HS 578T breast): 1.75 µM | TGI (HS 578T breast): 11.8 µM | GI50 (T-47D breast): 2.56 µM | TGI (T-47D breast): 12.8 µM | GI50 (MCF7 breast): 1.14 µM | TGI (MCF7 breast): 2.96 µM

COC(=O)/C(=N/NC(C)(C)C)C(C(=O)C=C(C)C)C(=O)C(=O)Nc1ccc(Cl)cc1C (centres undefined)
TGI (XF 498 CNS): > 100 µM | TGI (LXFL 529 NSCLC): > 100 µM

OC1CCC(Oc2cccc3cnc(Nc4ccc5nc[nH]c5c4)nc23)CC1 (centres undefined)
GI50 (MDA-MB-435): 0.612 µM | TGI (MDA-MB-435): 12.1 µM | GI50 (HS 578T breast): 0.728 µM | TGI (HS 578T breast): 8.32 µM | GI50 (T-47D breast): 1.03 µM | TGI (T-47D breast): 14.4 µM | GI50 (MCF7 breast): 0.217 µM | TGI (MCF7 breast): 3.1 µM

O=C1/C(=C\c2cccs2)Oc2ccccc21
TGI (MDA-MB-435): > 100 µM | TGI (HS 578T breast): > 100 µM | TGI (T-47D breast): 10.8 µM | TGI (MDA-N): > 100 µM | TGI (MCF7 breast): > 100 µM

COc1cc(C(C#N)NNC(=O)c2ccccc2O)ccc1O (centres undefined)
TGI (LXFL 529 NSCLC): > 100 µM

Cc1cc(O)cc(C)c1/C=C/c1cncc(C(=O)N(C)C)c1
GI50 (MDA-MB-435): > 25 µM | TGI (MDA-MB-435): > 25 µM | GI50 (HS 578T breast): > 25 µM | TGI (HS 578T breast): > 25 µM | GI50 (T-47D breast): > 25 µM | TGI (T-47D breast): > 25 µM | GI50 (MCF7 breast): > 25 µM | TGI (MCF7 breast): > 25 µM

N#C/C(=C(\O)C(=O)O)c1ccc(-c2cccc3ccccc23)cc1
TGI (MDA-MB-435): > 100 µM | TGI (HS 578T breast): > 100 µM | TGI (T-47D breast): > 100 µM | TGI (MDA-N): > 100 µM | TGI (MCF7 breast): > 100 µM

O=C(c1ccco1)N(C(=S)N1CCN(c2ccccc2)CC1)c1ccccc1
TGI (DMS 273 small cell lung): > 100 µM | TGI (LXFL 529 NSCLC): > 100 µM

CCOC(OC1=C(C#N)CCC1)C(CC)[Se]c1ccccc1 (centres undefined)
TGI (XF 498 CNS): 49.7 µM | TGI (DMS 273 small cell lung): 24.2 µM | TGI (LXFL 529 NSCLC): 48.5 µM

O=c1oc2c3ccc4ccccc4c3n(Cc3nc4ccccc4[nH]3)c2c2ccccc12
TGI (LXFL 529 NSCLC): > 100 µM

Cn1nnnc1[N-]Cc1ccccc1.[Au+].c1ccc([PH+](c2ccccc2)c2ccccc2)cc1
GI50 (DMS 273 small cell lung): 11.1 µM | TGI (DMS 273 small cell lung): > 100 µM | GI50 (LXFL 529 NSCLC): 1.45 µM | TGI (LXFL 529 NSCLC): 2.79 µM

c1cc(-c2sc(-c3ccncc3)c(-c3ccncc3)c2-c2ccncc2)ccn1
TGI (MDA-MB-435): 33.4 µM | TGI (HS 578T breast): 73.5 µM | TGI (T-47D breast): > 100 µM | TGI (MDA-N): 29 µM | TGI (MCF7 breast): 52 µM

Cc1c2ncccc2c(C)c2c1[nH]c1ccccc12
TGI (XF 498 CNS): 25.3 µM | TGI (DMS 273 small cell lung): 19 µM | TGI (LXFL 529 NSCLC): 24.8 µM

Cn1cnc([N+](=O)[O-])c1Sc1ncnc2nc[nH]c12
GI50 (MDA-MB-435): 2.68 µM and 4.37 µM | TGI (MDA-MB-435): > 100 µM | GI50 (HS 578T breast): 4.8 µM and 3.86 µM | TGI (HS 578T breast): > 100 µM | GI50 (T-47D breast): 2.75 µM and 4.51 µM | TGI (T-47D breast): > 100 µM | GI50 (MCF7 breast): 2.92 µM and 3.69 µM | TGI (MCF7 breast): > 100 µM

N#CC1C(N)=NNC1c1ccc(-c2ccc(-c3nc4ccccc4o3)cc2)o1 (centres undefined)
GI50 (MDA-MB-435): 36.4 µM | TGI (MDA-MB-435): > 100 µM | GI50 (HS 578T breast): 29.6 µM | TGI (HS 578T breast): > 100 µM | GI50 (T-47D breast): 68.5 µM | TGI (T-47D breast): > 100 µM

O=Nc1c2cccnc2n2nnc3ccc(Cl)cc3c12
GI50 (MDA-MB-435): 2.65 µM | TGI (MDA-MB-435): 7.99 µM | GI50 (HS 578T breast): 2.84 µM | TGI (HS 578T breast): 9.89 µM | GI50 (T-47D breast): 0.412 µM | TGI (T-47D breast): 1.7 µM | GI50 (MCF7 breast): 0.792 µM | TGI (MCF7 breast): 3.39 µM

CCCc1ccc(N=Cc2cc(OC)c(OC)c(OC)c2)cc1
TGI (XF 498 CNS): > 100 µM | TGI (DMS 273 small cell lung): > 100 µM | TGI (LXFL 529 NSCLC): > 100 µM

OCC1OC(N2C=C(c3nc4ccccc4s3)C3C=CC=CC32)C(O)C1O (centres undefined)
GI50 (MDA-MB-435): 12 µM | TGI (MDA-MB-435): 24.5 µM | GI50 (HS 578T breast): 14.2 µM | TGI (HS 578T breast): > 50 µM | GI50 (MCF7 breast): 5.95 µM | TGI (MCF7 breast): > 50 µM

O=C1NC(=O)C(c2ccccc2Cl)=C1Nc1cccc(O)c1
GI50 (HS 578T breast): 1.82 µM | TGI (HS 578T breast): 17.7 µM | GI50 (T-47D breast): > 10.4 µM | TGI (T-47D breast): > 25 µM | GI50 (MCF7 breast): 3.99 µM | TGI (MCF7 breast): > 20.7 µM

O=c1c(OC/C(=N/O)c2ccccc2)c(-c2ccccc2)oc2ccccc12
GI50 (MDA-MB-435): 10.9 µM | TGI (MDA-MB-435): 28 µM | GI50 (T-47D breast): 14.8 µM | TGI (T-47D breast): 38.1 µM

C=C1C(=O)O[C@H]2[C@H]1CC/C(COC(=O)c1ccc(C(=O)O)s1)=C\CC[C@@]1(C)O[C@@H]21
GI50 (MDA-MB-435): 1.92 µM | TGI (MDA-MB-435): 4 µM | GI50 (HS 578T breast): 4.79 µM | TGI (HS 578T breast): 64.5 µM | GI50 (T-47D breast): 2.22 µM | TGI (T-47D breast): 5.53 µM

CCOC(=O)/C(=C\c1ccc(CO)o1)P(=O)(OCC)OCC
TGI (MDA-MB-435): 86.9 µM | TGI (HS 578T breast): > 100 µM | TGI (T-47D breast): > 100 µM | TGI (MDA-N): 47.8 µM | TGI (MCF7 breast): > 100 µM

CCOC(=O)c1c2ccc(/C=C/C(=O)OC)ccc-2c(C(=O)OCC)c1N
TGI (DMS 273 small cell lung): > 100 µM | TGI (LXFL 529 NSCLC): > 100 µM

CC/C=C\C[C@H](O)C/C=C1/C(=O)C=C[C@@H]1C/C=C\CCCC(N)=O
GI50 (MDA-MB-435): 1.72 µM | TGI (MDA-MB-435): 5.24 µM | GI50 (HS 578T breast): 5.29 µM | TGI (HS 578T breast): 32.4 µM | GI50 (T-47D breast): 3.14 µM | TGI (T-47D breast): 15.3 µM | GI50 (MCF7 breast): 0.626 µM | TGI (MCF7 breast): 11.7 µM

Cc1ccc(S(=O)(=O)NCCN2c3nc4ccccc4cc3Sc3cc4ccccc4nc32)cc1
GI50 (MDA-MB-435): > 100 µM | TGI (MDA-MB-435): > 100 µM | GI50 (HS 578T breast): 2.43 µM | TGI (HS 578T breast): 23.2 µM | GI50 (T-47D breast): 4.54 µM | TGI (T-47D breast): > 100 µM | GI50 (MCF7 breast): > 100 µM | TGI (MCF7 breast): > 100 µM

CC1=C(N2CC2)C(=O)c2nc3n(c2C1=O)CCC3O (centres undefined)
TGI (MDA-MB-435): 0.0484 µM | TGI (HS 578T breast): 0.0585 µM | TGI (T-47D breast): 2.04 µM | TGI (XF 498 CNS): 29.8 µM | TGI (DMS 273 small cell lung): 1.68 µM | TGI (LXFL 529 NSCLC): 2.44 µM

NC(N)=NNC(=O)C(=O)O
TGI (MDA-MB-435): > 100 µM | TGI (HS 578T breast): > 100 µM | TGI (T-47D breast): > 100 µM | TGI (MDA-N): > 100 µM | TGI (MCF7 breast): > 100 µM

CN(C)CN1C(=O)S/C(=C2\C(=O)N(CN(C)C)c3ccccc32)C1=O
TGI (MDA-MB-435): > 100 µM | TGI (HS 578T breast): > 100 µM | TGI (T-47D breast): > 100 µM | TGI (MCF7 breast): > 100 µM

CCC(=O)N1C/C(=C/c2ccc(OC)cc2)C(=O)/C(=C/c2ccc(OC)cc2)C1
GI50 (MDA-MB-435): 1.23 µM | TGI (MDA-MB-435): 4.42 µM | GI50 (HS 578T breast): 2.35 µM | TGI (HS 578T breast): 7.47 µM | GI50 (T-47D breast): 5.1 µM | TGI (T-47D breast): > 100 µM | GI50 (MCF7 breast): 0.498 µM | TGI (MCF7 breast): 12.2 µM

COc1ccc2c(C3(O)CCNCC3)c[nH]c2c1
TGI (RXF-631 renal): > 100 µM | TGI (DMS 273 small cell lung): > 100 µM | TGI (LXFL 529 NSCLC): > 100 µM
